Test results as given in PubChem BioAssay AID1549 (Sanford-Burnham Center for Chemical Genomics, 2009).
Calls of active or inactive are those of the source. No rule for the calls is given here.

Target: Influenza A virus M2 proton channel (A/TW/4845/1999 H1N1)
Experiment: M2 proton channel binding, NMR based, influenza A virus H1N1 strain (AID 1549)
Conditions: NMR binding screen, M2 protein

SMILES | Kd
Cc1cc2c(N)cccc2nn1 | > 4 mM (inactive)
Cc1ccc(C(=O)n2cnnc2N)cc1C | > 4 mM (inactive)
COc1ccc(C(=O)NNC(=S)NC(C)=O)cc1 | > 4 mM (inactive)
O=C(O)c1ccccc1C(=O)Nc1ccccc1 | > 4 mM (inactive)
CCOC(=O)c1c(C)[nH]c2ccc(O)cc12 | > 4 mM (inactive)
Fc1ccc(CN2CCCNCC2)cc1 | > 4 mM (inactive)
O=C(O)C(Cc1cnc[nH]1)N1C(=O)c2ccccc2C1=O (stereo not drawn) | > 4 mM (inactive)
CCn1cnc(C(=O)NC)c1C(=O)NC | > 4 mM (inactive)
CC(=O)Nc1cccc(Cn2cccn2)c1 | > 4 mM (inactive)
Cc1cc(O)c2c(c1O)C(=O)c1c(O)cc(C)c(O)c1C2=O | > 4 mM (inactive)
COC(=O)c1ccc2nccnc2c1 | > 4 mM (inactive)
O=C(Nc1ccon1)c1csc2c1CCCC2 | > 4 mM (inactive)
COc1cc(O)c(C(=O)c2ccccc2)cc1O | > 4 mM (inactive)
NCc1ccc(CN2CCOCC2)cc1 | > 4 mM (inactive)
NC(=O)c1ccc(SCC(=O)O)c([N+](=O)[O-])c1 | > 4 mM (inactive)
O=C1CSC(c2ccccc2)N1 (stereo not drawn) | > 4 mM (inactive)
Nc1cccc(C(=O)c2ccccc2)c1 | > 4 mM (inactive)
Cc1cc(C)nc(Nc2n[nH]c(Cc3ccccc3)n2)n1 | > 4 mM (inactive)
O=C(O)CCCc1nc2ccccc2s1 | > 4 mM (inactive)
COc1cc(OC)c2c(=O)c(-c3ccccc3)coc2c1 | > 4 mM (inactive)
Cc1n[nH]c(C)c1CN | > 4 mM (inactive)
CC(C)(C)NC(=O)N1CCC(C(N)=O)CC1 | > 4 mM (inactive)
CC1=C2C(O)C(=O)OC3CC4C(C)(C)C(=O)C=C[C@]4(C)C(CC1)[C@]23C (stereo partly drawn) | > 4 mM (inactive)
C[C@@H]1OC(O[C@H]2C(O[C@H]3CC[C@@]4(C)C(CC[C@]5(C)C4CC=C4C6CC(C)(C)CC[C@]6(C(=O)O)CC[C@]45C)[C@]3(C)CO)OC[C@H](O)[C@@H]2O)[C@H](O)[C@H](O)[C@H]1O (stereo partly drawn) | > 4 mM (inactive)

SMILES | Kd
Cc1oc2nc3c(c(=O)[nH]c(=O)n3C)n2c1C | > 4 mM (inactive)
CO[C@H]1[C@@H](O)[C@@H](C)O[C@H](O[C@H]2CCC3(C)C4CCC5(C)[C@@H](C6=CC(=O)OC6)CC[C@]5(O)[C@@H]4CC[C@]3(O)C2)[C@@H]1O (stereo partly drawn) | > 4 mM (inactive)
Cn1cnnc1SCCCNC(=O)Nc1ncccn1 | > 4 mM (inactive)
O=C(O)CS(=O)(=O)c1ccccc1[N+](=O)[O-] | > 4 mM (inactive)
CC1=C(/C=C/C(C)=C/C=C/C(C)=C/C=C/C=C(C)/C=C/C=C(C)/C=C/C2=C(C)CCCC2(C)C)C(C)(C)CCC1 | > 4 mM (inactive)
[O-][n+]1onc2c1CCc1c-2nc(-c2ccccc2)n1O | > 4 mM (inactive)
COC(=O)c1ccc(/C=C2/NC(=S)NC2=O)cc1 | > 4 mM (inactive)
Cn1c(=O)n(-c2cccc(Cl)c2)c(=O)n1C | > 4 mM (inactive)
O=C(CSc1ncnc2ccccc12)NCCCO | > 4 mM (inactive)
O=C(O)c1[nH]nc2c1COc1ccccc1-2 | > 4 mM (inactive)
O=C(Nc1ccccn1)C(=O)N1CCCC1 | > 4 mM (inactive)
Clc1ccccc1-c1nc(-c2cccnc2)no1 | > 4 mM (inactive)
COc1ccc(-c2cc(=O)c3ccccc3o2)cc1OC | > 4 mM (inactive)
O=C(N1CCOCC1)N1CCN(c2ccccn2)CC1 | > 4 mM (inactive)
CC1(C)CCC(C)(C)c2cc(C(=O)O)ccc21 | > 4 mM (inactive)
CCCc1nc2ccccc2c2nc(N)nn12 | > 4 mM (inactive)
O=C1Cc2ccccc2N1c1ccccc1 | > 4 mM (inactive)
CCOc1cc(S(=O)(=O)n2nc(C)cc2C)ccc1F | > 4 mM (inactive)
O=C(CC1SC(=O)NC1=O)Nc1ccccc1 (stereo not drawn) | > 4 mM (inactive)
O=C(O)c1cc2ccccc2s1 | > 4 mM (inactive)
Cc1ccc(N2C(=O)CCC2=O)cc1 | > 4 mM (inactive)
Nc1nc(-c2ccc(O)cc2)cs1 | > 4 mM (inactive)
CC(=O)NS(=O)(=O)c1ccc(C)cc1 | > 4 mM (inactive)
CN1CC(=O)N=C1N | > 4 mM (inactive)

SMILES | Kd
c1csc(-c2nnc3ccccn23)c1 | > 4 mM (inactive)
COC(=O)c1c(OC)cc2c(c1C)Oc1c(Cl)c(O)c(Cl)c(C)c1C(=O)O2 | > 4 mM (inactive)
O=C(Nc1ccccc1)c1cnc2n(c1=O)CCS2 | > 4 mM (inactive)
OCC1CCN(c2ncccn2)CC1 | > 4 mM (inactive)
CN(C)C(=S)Nc1ccc([N+](=O)[O-])cc1 | > 4 mM (inactive)
O=C(O)C1CN(Cc2ccccc2)CCO1 (stereo not drawn) | > 4 mM (inactive)
Cc1noc(C)c1C(=O)NC1=NCCS1 | > 4 mM (inactive)
CC(=O)Nc1nc(-c2cccs2)cs1 | > 4 mM (inactive)
O=C(O)C(CO)c1ccccc1 (stereo not drawn) | > 4 mM (inactive)
NCCc1ccc(S(N)(=O)=O)cc1 | > 4 mM (inactive)
COc1cc2ccc(=O)oc2c2ccoc12 | > 4 mM (inactive)
O=C(CSc1ccccc1)N1CCC2(CC1)OCCO2 | > 4 mM (inactive)
CN(C(N)=O)C1(C)CCS(=O)(=O)C1 (stereo not drawn) | > 4 mM (inactive)
COC(=O)Nc1nc2c(C)cccc2s1 | > 4 mM (inactive)
CCn1cnc2sc(C(=O)O)c(C)c2c1=O | > 4 mM (inactive)
Cn1c(=O)[nH]c(=O)c2c1ncn2CCN1CCCCC1 | > 4 mM (inactive)
COc1nc(C)ccc1-c1noc(-c2ccncc2)n1 | > 4 mM (inactive)
Nc1ccc(-c2cn3c(n2)SCC3)cc1 | > 4 mM (inactive)
CC(=O)c1cccc(NC(=O)NN2CCOCC2)c1 | > 4 mM (inactive)
O=S(=O)(NCc1ccco1)c1cccc2cccnc12 | > 4 mM (inactive)
CC(C)(C)C(=O)Nc1nnc(SCC(N)=O)s1 | > 4 mM (inactive)
O=C(O)c1ccc2c(c1)OCCCO2 | > 4 mM (inactive)
N#CCSc1nc(-c2ccccc2)cs1 | > 4 mM (inactive)
O=C(Nc1nc2c(s1)CCCC2)c1cccnc1 | > 4 mM (inactive)

SMILES | Kd
O=C(NCc1ccc2c(c1)OCO2)c1cccs1 | > 4 mM (inactive)
O=C(NC1CC1)c1ccccc1[N+](=O)[O-] | > 4 mM (inactive)
Cc1ccc(/C=C/C(=O)O)cc1S(=O)(=O)NCCO | > 4 mM (inactive)
Cc1occc1C(=O)Nc1ccc2c(c1)OCO2 | > 4 mM (inactive)
N/C(=N/S(=O)(=O)c1cccs1)c1ccccc1 | > 4 mM (inactive)
Nc1ncccc1OCc1ccccc1 | > 4 mM (inactive)
Cn1nnc2c(N3CCC(C(N)=O)CC3)ncnc21 | > 4 mM (inactive)
CC1(C)CC2(CCO1)NCCN1C(=O)CSC12 (stereo not drawn) | > 4 mM (inactive)
O=C(NCC1CCNCC1)c1ccccn1 | > 4 mM (inactive)
O=S(=O)(c1cccc(Cl)c1)N1CCCC1 | > 4 mM (inactive)
O=C(O)c1cccc(N2C(=O)C3CC=CCC3C2=O)c1 (stereo not drawn) | > 4 mM (inactive)
CN(C)c1nc(N2CCOCC2)c2cnn(C)c2n1 | > 4 mM (inactive)
CC(=O)Nc1sccc1C(=O)NC(N)=O | > 4 mM (inactive)
OCc1ccc(-n2ccnc2)cc1 | > 4 mM (inactive)
CC(=O)Nc1c(C#N)c(C(C)(C)C)cn1C | > 4 mM (inactive)
CN(C)c1ccc(N2C(=O)CCC2=O)cc1 | > 4 mM (inactive)
CC(=O)c1sc2nc(N)nn2c1C | > 4 mM (inactive)
Cc1cc(C)cc(OC(=O)N2CCOCC2)c1 | > 4 mM (inactive)
Cc1nn(C)c(N2CCOCC2)c1N | > 4 mM (inactive)
CC1(C)CC2C1CCC1(C)OC1CCC2(C)O (stereo not drawn) | > 4 mM (inactive)
CC(C)(O)CC[C@@H](O)[C@](C)(O)C1CC[C@@]2(O)C3=CC(=O)C4C[C@@H](O)[C@@H](O)C[C@]4(C)C3CC[C@]12C (stereo partly drawn) | > 4 mM (inactive)
O=C1CSC(=Nc2cccc(C(=O)O)c2)N1 | > 4 mM (inactive)
CC(C)=CCCC1(C)C=Cc2c(O)c3c(c(CC=C(C)C)c2O1)OC12C(=CC4CC1C(C)(C)OC2(C/C=C(/C)C(=O)O)C4=O)C3=O (stereo not drawn) | > 4 mM (inactive)
O=C1CC(=O)N(c2ccccc2)c2ccccc21 | > 4 mM (inactive)

SMILES | Kd
CS(=O)(=O)c1ccccc1C(=O)Nc1nccs1 | > 4 mM (inactive)
CN(C)c1nc(N2CCOCC2)nc(N2CCOCC2)n1 | > 4 mM (inactive)
CC1(C)NC(=O)N(CN2CCOCC2)C1=O | > 4 mM (inactive)
OCc1cccc2c1OCO2 | > 4 mM (inactive)
COc1ccc2c(c1)O[C@H]1c3ccc(OC)cc3OC[C@@H]21 | > 4 mM (inactive)
CN1CCN(CC(=O)NC2CCCCC2)CC1 | > 4 mM (inactive)
CCCNC(=O)CSc1ncccc1C(=O)O | > 4 mM (inactive)
O=C(O)c1csc(-c2cccnc2)n1 | > 4 mM (inactive)
CCOC(=O)CC1Sc2ccccc2NC1=S (stereo not drawn) | > 4 mM (inactive)
CN1CCC(NC(=O)c2cnccn2)CC1 | > 4 mM (inactive)
Cn1c(CO)nc2cc(N)ccc21 | > 4 mM (inactive)
Cc1cc(=O)cc(C)n1-c1ccccc1N1CCOCC1 | > 4 mM (inactive)
O=C(O)C1CNc2ccccc2O1 (stereo not drawn) | > 4 mM (inactive)
CN1C(=O)C(Cc2c[nH]c3ccccc23)C(=O)N(C)C1=O | > 4 mM (inactive)
O=S(=O)(CCN1CCCC1)c1ccccc1 | > 4 mM (inactive)
Cc1ccc(-c2c(C)n([O-])c3c([n+]2=O)CCCC3)o1 | > 4 mM (inactive)
COc1ccc2[nH]cc(CCN(C)C)c2c1 | > 4 mM (inactive)
O=C1O[C@H](C(O)CO)C(O)=C1O (stereo partly drawn) | > 4 mM (inactive)
COC(=O)C[C@@H]1C2(C)C(=O)[C@@H](CC3=C4C=C(OC)O[C@@H](c5ccoc5)[C@]4(C)CCC32)[C@H](O)C1(C)C (stereo partly drawn) | > 4 mM (inactive)
CC(=O)O[C@H]1C[C@@H](OC(C)=O)C(C)(C)C2C[C@@H](OC(C)=O)[C@]3(C)C(CC[C@@]4(C)[C@H](c5ccoc5)C(=O)[C@H]5O[C@]543)[C@]21C (stereo partly drawn) | > 4 mM (inactive)
COc1ccccc1-c1c(C)nn2c(C)c(C(C)=O)cnc12 | > 4 mM (inactive)
Nc1cc(F)nc(F)n1 | > 4 mM (inactive)
